Results published in the supplement of paper PMC10307832.

What was measured:
Assay in all cases: relative viability (nuclei count vs DMSO), 5 days (fraction); higher = more cells survive
Selisistat + Palbociclib = compound: C1CC(C2=C(C1)C3=C(N2)C=CC(=C3)Cl)C(=O)N [Selisistat] + CC(=O)c1c(C)c2cnc(Nc3ccc(N4CCNCC4)cn3)nc2n(C2CCCC2)c1=O [Palbociclib] (partner 0.5 µM)
Summary of the method: (§1)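 Each reported value is a median over duplicate plates. It expresses relative viability: treated-well nuclei count divided by vehicle-well nuclei count. Lung cancer cell lines in 1536-well plates were dosed by pin tool a day after seeding, alone with one drug or with a fixed anchor-drug dose plus five library-drug doses (not always all listed) in √10 steps, and nuclei were counted after 5 days.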

Selisistat + AZD7762 = compound: C1CC(C2=C(C1)C3=C(N2)C=CC(=C3)Cl)C(=O)N [Selisistat] + NC(=O)Nc1cc(-c2cccc(F)c2)sc1C(=O)N[C@H]1CCCNC1 [AZD7762] (partner 0.2 µM)
Summary of the method: as §1

Serdemetan + Decitabine = compound: c1ccc2c(CCNc3ccc(Nc4ccncc4)cc3)c[nH]c2c1 [Serdemetan] + Nc1ncn([C@H]2C[C@H](O)[C@@H](CO)O2)c(=O)n1 [Decitabine] (partner 2 µM)
Summary of the method: as §1

Serdemetan + Crizotinib = compound: c1ccc2c(CCNc3ccc(Nc4ccncc4)cc3)c[nH]c2c1 [Serdemetan] + C[C@@H](Oc1cc(-c2cnn(C3CCNCC3)c2)cnc1N)c1c(Cl)ccc(F)c1Cl [Crizotinib] (partner 1 µM)
Summary of the method: as §1

Cell Line	relative viability (Selisistat + Palbociclib; first compound 0.4 µM)	relative viability (Selisistat + Palbociclib; first compound 1.265 µM)	relative viability (Selisistat + Palbociclib; first compound 4 µM)	relative viability (Selisistat + Palbociclib; first compound 12.65 µM)	relative viability (Selisistat + Palbociclib; first compound 40 µM)	relative viability (Selisistat + AZD7762; first compound 0.4 µM)	relative viability (Selisistat + AZD7762; first compound 1.265 µM)	relative viability (Selisistat + AZD7762; first compound 4 µM)	relative viability (Selisistat + AZD7762; first compound 12.65 µM)	relative viability (Selisistat + AZD7762; first compound 40 µM)	relative viability (Serdemetan + Decitabine; first compound 0.04 µM)	relative viability (Serdemetan + Decitabine; first compound 0.1265 µM)	relative viability (Serdemetan + Decitabine; first compound 0.4 µM)	relative viability (Serdemetan + Decitabine; first compound 1.265 µM)	relative viability (Serdemetan + Decitabine; first compound 4 µM)	relative viability (Serdemetan + Crizotinib; first compound 0.04 µM)	relative viability (Serdemetan + Crizotinib; first compound 0.1265 µM)	relative viability (Serdemetan + Crizotinib; first compound 0.4 µM)	relative viability (Serdemetan + Crizotinib; first compound 1.265 µM)	relative viability (Serdemetan + Crizotinib; first compound 4 µM)
NCI-H522	1	0.969	0.714	0.921	1.02	0.63	0.672	0.622	0.9	1.01	0.677	0.775	0.68	0.691	0.613					
HCC-15	0.755	0.854	0.586	0.748	0.885	1.34	1.23	1.16	1.3	1.55	0.614	0.599	0.56	0.511	0.341	0.795	0.852	0.743	0.584	0.58
A-427	0.57	0.485		0.57	0.554	0.742	0.785		0.725	0.757	0.555	0.56	0.606	0.513	0.45	0.919	0.789	0.662	0.287	0.404
NCI-H2228	0.797	0.726	0.802	0.795	0.801											0.466	0.284	0.591	0.237	0.287
NCI-H1734	0.366	0.37	0.353	0.379	0.369	0.594	0.485	0.453	0.505	0.607	0.44	0.26	0.226	0.111	0.188	0.61		0.196	0.144	0.155
PC-14	0.513	0.498	0.528	0.53	0.489	0.381	0.344	0.226	0.278	0.36	0.186	0.202		0.125	0.138	0.899	0.87	0.793	0.649	0.745
NCI-H1915	0.612	0.515	0.466	0.554	0.587	0.668	0.687	0.775	0.674	0.757	0.266	0.259	0.253	0.231	0.239	0.86	0.887	0.833	0.709	0.59
NCI-H1666	0.658	0.613	0.642	0.659	0.611	0.841	0.83	0.806	0.895	0.96	0.798	0.657	0.652	0.645	0.697	1.01	0.981	0.907	0.663	0.836
HCC-366	0.414	0.447	0.37	0.355	0.377	0.315	0.225	0.257	0.186	0.166	0.209	0.154	0.0922	0.0502	0.0773	0.528	0.412	0.117	0.0254	0.0545
